The record followed here is patent US6740335B1, “Liposomal camptothecin formulations” (priority 1997, dated 2004).

SMILES strings stand for the structures.

In data set [1] the test system is B16-F1 (Melanoma, murine). Description: 3H-thymidine incorporation cytotoxicity assay, B16-F1. The note with it: B16-F1, 24 h. Format: cell-based. The method, then: (§1) In vitro efficacy screening has been performed using GI147211 and liposomal formulations of GI147211. […] Standard tumor cell-based cytototoxicity assays assessing ^3H-thymidine incorporation were performed.
(§2) Tumor cells were seeded into 96-well tissue culture plates (1×10^4 cells/well)≡4 h prior to experimentation. […] Positive and negative (Tris treated) control groups were included on each assay plate. Tumor cells were then labeled with 0.25 μCi of [methyl-^3H] thymidine and incubated for 42 h under tissue culture conditions (37° C., 5% CO2, 100% relative humidity), except for C6, U251, A673 and B16-F1 cells which were incubated for 24 h. Cells were then lysed, harvested onto glass-fiber filters and unincorporated [methyl-^3H] thymidine removed by filter washing. Filters were processed for scintillation counting and cpm-^3H/well determined. […] Data are presented from multiple sets of experimentation, involving multiple liposomal formulations of GI147211.
Background: Incorporation of labelled thymidine or its analogues reports DNA synthesis.

The test system of data set [2] is LS-513 (Cecum). Description: 3H-thymidine incorporation cytotoxicity assay, LS-513. Format: cell-based, human. The settings on record: LS-513, 42 h. The method, then:
as §1, §2

For data set [3], the system named is HT-29 (Colon). Nature of the data set: 3H-thymidine incorporation cytotoxicity assay, HT-29. Format: cell-based, human. The settings on record: HT-29, 42 h. Here is the method: as §1, §2
In data set [4] the test system is ES2 Tumor Xenograft. Description: Repeat dose efficacy at equal toxic doses, ES2 xenograft. The settings on record: ES2, 16 mg/kg, days 1, 8 and 15. Here is the method:
In all the studies performed, subcutaneous tumors implanted on the anterior flank of nude mice were allowed to grow to an established size of 200+/−50 mm^3 prior to dosing drugs.
Drugs were dosed on days 1,8 and 15.

The subject of data set [5] is ES-2 (ovarian carcinoma). Nature of the data set: 3H-thymidine incorporation cytotoxicity assay, ES-2. Format: cell-based, human. The settings on record: ES-2, 42 h. The method, then: as §1, §2
In data set [6] the test system is U87-MG (Astrocytoma). Description: 3H-thymidine incorporation cytotoxicity assay, U87-MG. Format: cell-based, human. The settings on record: 42 h. The method, then:
as §1, §2

Data set [7] deals with U251 (Glioblastoma). Description: 3H-thymidine incorporation cytotoxicity assay, U251. Format: cell-based, human. The settings on record: U251, 24 h. The method, then:
as §1, §2

Data set [8] concerns A673 (Rhabdomyosarcoma). Description: 3H-thymidine incorporation cytotoxicity assay, A673. Format: cell-based, human. The note with it: A673, 24 h. Here is the method: as §1, §2
Data set [9] concerns DU-145 (prostate carcinoma). Description: 3H-thymidine incorporation cytotoxicity assay, DU-145. Format: cell-based, human. The settings on record: DU-145, 42 h. Here is the method: as §1, §2
Data set [10] relates to U937 (Lymphoma). Nature of the data set: 3H-thymidine incorporation cytotoxicity assay, U937. Format: cell-based, human. The note with it: U937, 42 h. The method, then:
as §1, §2

The subject of data set [11] is BT-20 (Breast). Nature of the data set: 3H-thymidine incorporation cytotoxicity assay, BT-20. Format: cell-based, human. The note with it: BT-20, 42 h. Here is the method: as §1, §2
The subject of data set [12] is SKOV-3 (ovarian carcinoma). Description: 3H-thymidine incorporation cytotoxicity assay, SKOV-3. Format: cell-based, human. The settings on record: SKOV-3, 42 h. Here is the method: as §1, §2
In data set [13] the test system is H460 (Lung, Non-Small Cell). Description: 3H-thymidine incorporation cytotoxicity assay, H460. Format: cell-based, human. The settings on record: H460, 42 h. The method, then: as §1, §2
Data set [14] relates to MDA-MB-468 (Breast). Description: 3H-thymidine incorporation cytotoxicity assay, MDA-MB-468. Format: cell-based, human. The note with it: MDA-MB-468, 42 h. The method, then: as §1, §2
In data set [15] the test system is LOX (melanoma). Description: 3H-thymidine incorporation cytotoxicity assay, LOX. The note with it: 42 h. Format: cell-based, human. Here is the method: as §1, §2
Data set [16] concerns KB (oralpharyngial carcinoma). Description: 3H-thymidine incorporation cytotoxicity assay, KB. Format: cell-based, human. The settings on record: 42 h. Here is the method: as §1, §2
The test system of data set [17] is KBV (oralpharyngial carcinoma, vincristine resistant phenotype). Nature of the data set: 3H-thymidine incorporation cytotoxicity assay, KBV. Format: cell-based, human. The settings on record: 42 h. Here is the method: as §1, §2
The subject of data set [18] is MCF-7 (Breast). Description: 3H-thymidine incorporation cytotoxicity assay, MCF-7. Format: cell-based, human. The note with it: MCF-7, 42 h. The method, then:
as §1, §2

For the molecule `CC[C@@]1(O)C(=O)OCc2c1cc1n(c2=O)Cc2cc3c(CN(C)C)c(O)ccc3nc2-1` [Topotecan], the “Median IC50” value amounted to 0.393 µg/mL in data set [1]; 0.016 µg/mL in data set [2]; 0.00415 µg/mL in [3]; 0.00389 µg/mL in data set [5]; 0.0216 µg/mL in [6]; 0.0131 µg/mL in [7]. For the same molecule, the “Median IC50” value in data set [8] came out at 0.00604 µg/mL; in [9] it was 0.0135 µg/mL; in data set [10] it was 0.00903 µg/mL; in data set [11], 0.0035 µg/mL; in [12], 0.00518 µg/mL; in [13], 0.0209 µg/mL. Further, the “Median IC50” value turned out to be 0.0473 µg/mL in data set [14]; 0.00492 µg/mL in data set [15]; 0.0336 µg/mL in [16]; 0.611 µg/mL in data set [17]; 0.23 µg/mL in data set [18]. For the same molecule, in data set [4], the Cures is given as 0. Further, the “Log Cell Kill” value in [4] was determined as 0.58. In data set [4], the “Maximum Body Weight loss” value is reported as 16%. In data set [4], the “T − C (to reach 400% tumor volume increase)” value amounted to 7.4 days. Moreover, in data set [4], the “Toxic Deaths” value was 3.
